# Results published in publication PMC8786148, “The effects of magainin 2-derived and rationally designed antimicrobial peptides on Mycoplasma pneumoniae” (PLoS ONE, 2022).
# Marks after values point to notes of the source that are not given here.
# Experiments:
# Pseudomonas aeruginosa = tested on: Pseudomonas aeruginosa; parameters: method as in PMID 28789896, PMID 31303986, PMID 33369262; details: previously reported; cited from earlier work
# Escherichia coli = tested on: Escherichia coli; parameters: method as in PMID 28789896, PMID 31303986, PMID 33369262; details: previously reported; cited from earlier work
# Mycoplasma pneumoniae FH [1] = test: Biofilm assay (crystal violet, absorbance at 550 nm), strain FH; details: initial 10^5 CFU/mL; for Effect in the biofilm assay: 0% CO2, up to 30 μmol/L; for Concentration with statistically significant effect in the biofilm assay: 0% CO2, 6-8 days at 37°C, p < 0.005, Shirley-Williams test
# Staphylococcus aureus = tested on: Staphylococcus aureus; parameters: method as in PMID 28789896, PMID 31303986, PMID 33369262; details: previously reported; cited from earlier work
# [2] = previously reported; cited from earlier work
# Mycoplasma pneumoniae FH [3] = test: Killing assay, strain FH; details: 30 μmol/L AMP, 3 days; for Killing assay result compared with saline: Welch's t test, p < 0.005; for Cell numbers (CFU/mL) after treatment with antimicrobial peptides, killing assay: initial 10^6 CFU/mL, triplicate, mean, saline 3.59×10^6
# [4] = tested on: Staphylococcus epidermidis; parameters: method as in PMID 28789896, PMID 31303986, PMID 33369262; details: previously reported; cited from earlier work
# [5] = tested on: M. pneumoniae strains FH, M52, Mac, Bru, and M129-B7; test: Propidium iodide (PI) uptake assay, membrane disruption; type: cell-based, Mycoplasma pneumoniae; details: 10 μmol/L AMP, PI 5 μg/mL in PBS, triplicate
# Method: We performed the PI uptake assays based on the previously described method with modification for M. pneumoniae. M. pneumoniae strains FH, M52, Mac, Bru, and M129-B7 were cultured as described above. Briefly, the 90 mL culture was done in PPLO-based medium for 6 days to observe the medium color change from red to yellow. The mycoplasma in the culture medium was centrifuged at 11,740g for 30 min at 4°C, and the precipitation was suspended in 20 mL phosphate buffered saline (PBS) by passing through a 60 mm-length 25-gauge needle (Top Corporation, Tokyo, Japan) three times. The suspension was centrifuged again at 11,740g for 30 min at 4°C, and 2.25 mL PBS was added to the precipitation. The 2× mycoplasma suspension was prepared by passing through a 60 mm-length 25-gauge needle five times. When using heat-killed M. pneumoniae (HKMp), the 2× suspension was heated at 95°C for 10 min. The 2× PI assay reaction mix based on PBS containing 20 μmol/L of an antimicrobial peptide or saline, and 10 μg/mL PI (Dojindo, Tokyo, Japan). Each assay was performed with a 96-well black flat-bottomed plate (PerkinElmer, Waltham, MA, USA) using a final cell volume of 100 μL prepared by mixing 2× mycoplasma suspension and 2× PI assay reaction mix at 1:1 in volume ratio. The intercalation fluorescence of PI was measured by using an Infinite 200 Pro F Plex microplate reader (Tecan, Zürich, Switzerland) every 2 min, with an excitation filter at 535 nm (half width: 25 nm) and an emission filter at 620 nm (half width: 20 nm). The averages and standard deviations of the fluorescent intensities was calculated, and normalised by an average fluorescence between 10 and 20 min of HKMp as 100% relative fluorescence, and by a minimum average fluorescence between 0 and 20 min of whole data as 0% relative fluorescence.
# Mycoplasma pneumoniae FH [6] = test: Colorimetric assay (absorbance at 560 nm), strain FH; details: initial 10^5 CFU/mL, 0% CO2, up to 30 μmol/L
# [7] = tested on: Mycoplasma pneumoniae M129-B7; test: Killing assay, strain M129-B7; details: AMP 30 μmol/L, 3 days, initial 10^6 CFU/mL, triplicate, mean, saline 3.79×10^6
# [8] = tested on: Mycoplasma pneumoniae M129-B7; test: Colorimetric and biofilm assays, strain M129-B7; type: cell-based; details: strain M129-B7; biofilm assay; p < 0.005
# [9] = tested on: Mycoplasma pneumoniae Mac; test: Colorimetric and biofilm assays, strain Mac; details: biofilm assay, p < 0.005
# [10] = tested on: Mycoplasma pneumoniae Bru; test: Killing assay, strain Bru; details: AMP 30 μmol/L, 3 days, initial 10^6 CFU/mL, triplicate, mean, saline 3.48×10^6
# [11] = tested on: Mycoplasma pneumoniae M52; test: Killing assay, strain M52; details: AMP 30 μmol/L, 3 days, initial 10^6 CFU/mL, triplicate, mean, saline 3.62×10^6
# [12] = tested on: Mycoplasma pneumoniae Mac; test: Killing assay, strain Mac; details: AMP 30 μmol/L, 3 days, initial 10^6 CFU/mL, triplicate, mean, saline 4.19×10^6
# [13] = tested on: Mycoplasma pneumoniae M52; test: Colorimetric and biofilm assays, strain M52; details: up to 30 μmol/L, Shirley-Williams test
# [14] = tested on: Mycoplasma pneumoniae Bru; test: Colorimetric and biofilm assays, strain Bru; details: biofilm assay, p < 0.005
# [15] = five strains, read every 2 min up to 20 min
# [16] = strains FH, M129-B7, and M52, up to 20 min
Substance,"MIC, Gram-negative, P. a. (Pseudomonas aeruginosa)","MIC, Gram-negative, E. c. (Escherichia coli)",Effect in the biofilm assay (Mycoplasma pneumoniae FH [1]),"MIC, Gram-positive, S. a. (Staphylococcus aureus)",Haemolysis (concentration with haemolytic effect) [2],Killing assay result compared with saline (Mycoplasma pneumoniae FH [3]),"Cell numbers (CFU/mL) after treatment with antimicrobial peptides, killing assay (Mycoplasma pneumoniae FH [3])","MIC, Gram-positive, S. e [4]","PI fluorescence compared with live Mp without peptide [5, 15]",Effect in the colorimetric assay (Mycoplasma pneumoniae FH [6]),Concentration with statistically significant effect in the biofilm assay (Mycoplasma pneumoniae FH [1]),"PI fluorescence compared with live Mp without peptide [5, 16]","Titre (CFU/mL), killing assay [7]",Concentration with statistically significant effect in the biofilm assay [8],Concentration with statistically significant effect in the biofilm assay [9],"Titre (CFU/mL), killing assay [10]","Titre (CFU/mL), killing assay [11]","Titre (CFU/mL), killing assay [12]",Effect in the biofilm assay [13],Concentration with statistically significant effect in the biofilm assay [14]
H-GIGKFLHSAKKFGKAFV-NH2 [Mag2-17base],3.13 µM,3.13 µM,no difference,50 µM,>100 µmol/L,limited influence on the growth,4.86×10^6 CFU/mL,12.5 µM,fluorescence of live Mp without any peptides were higher,,,,,,,,,,,
"H-GIGKFLHSAKKFGKAFVGEIMNS-NH2 [Mag2, magainin 2, natural AMP isolated from the skin of Xenopus laevis (the African clawed frog)]",12.5 µM,3.13 µM,,100 µM,,limited influence on the growth,4.06×10^6 CFU/mL,25 µM,fluorescence of live Mp without any peptides were higher,no difference,30 µmol/L,,,,,,,,,
"H-GIGKFLHSUKKFGKUFV-NH2 [17base-Aib, Mag2-17base derivative with 2-aminoisobutyric acid (Aib) insertions]",1.56 µM,3.13 µM,no difference,12.5 µM,>100 µmol/L,limited influence on the growth,3.75×10^6 CFU/mL,3.13 µM,slight fluorescent shift,,,fluorescence of live Mp without any peptides were higher,,,,,,,,
"H-GIGKFLHSZKKFGKZFV-NH2 [17base-Ac6c, Mag2-17base derivative with 1-aminocyclohexylcarboxylic acid (Ac6c) insertions]",6.25 µM,3.13 µM,,3.13 µM,3 µmol/L,significant difference,1.11×10^6 CFU/mL,3.13 µM,the fluorescence arose,,30 µmol/L,,,,,,,,,
"H-GIKKFLKSZKKFVKZFK-NH2 [17base-Hybrid, Mag2-17base derivative with Ac6c and lysine insertions]",3.13 µM,3.13 µM,,3.13 µM,,significant difference,3.50×10^5 CFU/mL,1.56 µM,the fluorescence arose,,8 µmol/L,,2.21×10^5 ^b CFU/mL,≤ 30 µmol/L,≤ 30 µmol/L,1.46×10^5 ^b CFU/mL,1.16×10^5 ^b CFU/mL,5.80×10^4 ^b CFU/mL,slight drop of biofilm production,≤ 30 µmol/L
"H-KKKLAKLKLGAKLKLKGKLGA-NH2 [Random, rationally designed AMP, helical structure and positions of positively charged lysine residues]",3.13 µM,12.5 µM,no difference,100 µM,,limited influence on the growth,4.93×10^6 CFU/mL,6.25 µM,fluorescence of live Mp without any peptides were higher,,,,,,,,,,,
"H-KLLKKAGKLLKKAGKLLKKAG-NH2 [Stripe, rationally designed AMP, helical structure and positions of positively charged lysine residues]",1.56 µM,3.13 µM,no difference,12.5 µM,,limited influence on the growth,3.71×10^6 CFU/mL,1.56 µM,,,,fluorescence of live Mp without any peptides were higher,,,,,,,,
